Series [1] concerns Zucker Diabetic Fatty (ZDF) rats (ZDF/Crl-Lepr^fa). The series is described as follows: Oral glucose tolerance test in overnight fasted 15-weeks old male ZDF rats (highly insulin-resistant model). In kind it is in vivo, rat. The note with it: 15-weeks old ZDF rats; single oral dose 3 mg/kg 30 min before glucose load 2 g/kg; versus vehicle control. How it is done:
According to a second example an oral glucose tolerance test is performed in overnight fasted 15-weeks old male Zucker Diabetic Fatty (ZDF) rats (ZDF/Crl-Lepr^fa). This aged ZDF rats serve as a highly insulin-resistant animal model. A pre-dose blood sample is obtained by tail bleed. Blood glucose is measured with a glucometer, and the animals are randomized for blood glucose (n=5/group). […] The animals receive an oral glucose load (2 g/kg) 30 min after compound administration. Blood glucose is measured in tail blood 30 min, 60 min, 90 min, 120 min, and 180 min after the glucose challenge. Glucose excursion is quantified by calculating the reactive glucose AUC. The data are presented as mean±SEM. The two-sided unpaired Student t-test is used for statistical comparison of the control group and the active groups as well as between active groups.

Series [2] has the same test system. In words: Oral glucose tolerance test in overnight fasted 9-weeks old male ZDF rats. The class given is in vivo, rat. The note with it: 9-weeks old ZDF rats; single oral dose 3 mg/kg 30 min before glucose load 2 g/kg; versus vehicle control. How it is done: According to a first example an oral glucose tolerance test is performed in overnight fasted 9-weeks old male Zucker Diabetic Fatty (ZDF) rats (ZDF/Crl-Lepr^fa). A pre-dose blood sample is obtained by tail bleed. Blood glucose is measured with a glucometer, and the animals are randomized for blood glucose (n=5/group). […] The animals receive an oral glucose load (2 g/kg) 30 min after compound administration. Blood glucose is measured in tail blood 15 min, 30 min, 60 min, and 90 min after the glucose challenge. Glucose excursion is quantified by calculating the reactive glucose AUC. The data are presented as mean±SEM. The two-sided unpaired Student t-test is used for statistical comparison of the control group and the active groups as well as between active groups.

Series [3] can be described thus: Excretion route at therapeutic oral dose levels. The class given is in vivo. As to conditions: mainly excreted via the liver.

Consider `CC#CCn1c(N2CCC[C@@H](N)C2)nc2c1c(=O)n(Cc1nc(C)c3ccccc3n1)c(=O)n2C` [Cpd. A, 1-[(4-methyl-quinazolin-2-yl)methyl]-3-methyl-7-(2-butyn-1-yl)-8-(3-(R)-amino-piperidin-1-yl)-xanthine], for which the “reduction of glucose excursion (reactive glucose AUC)” value in series [1] was determined as 1%; in series [2] it was 49%. The “excretion via the kidney” value in series [3] was < 7 % of the administered oral dose.

(Values after patent publication US8513264B2, “Combination therapy for the treatment of diabetes and related conditions” (Boehringer Ingelheim International GmbH, priority 2008, dated 2013).)
